Assay results: article PMC6148290, “Endogenous metabolites of vitamin E limit inflammation by targeting 5-lipoxygenase” (Nature Communications, 2018)

Target: T1, 5-LO (Homo sapiens, UniProt P09917)
T1 sequence (P09917 1-674): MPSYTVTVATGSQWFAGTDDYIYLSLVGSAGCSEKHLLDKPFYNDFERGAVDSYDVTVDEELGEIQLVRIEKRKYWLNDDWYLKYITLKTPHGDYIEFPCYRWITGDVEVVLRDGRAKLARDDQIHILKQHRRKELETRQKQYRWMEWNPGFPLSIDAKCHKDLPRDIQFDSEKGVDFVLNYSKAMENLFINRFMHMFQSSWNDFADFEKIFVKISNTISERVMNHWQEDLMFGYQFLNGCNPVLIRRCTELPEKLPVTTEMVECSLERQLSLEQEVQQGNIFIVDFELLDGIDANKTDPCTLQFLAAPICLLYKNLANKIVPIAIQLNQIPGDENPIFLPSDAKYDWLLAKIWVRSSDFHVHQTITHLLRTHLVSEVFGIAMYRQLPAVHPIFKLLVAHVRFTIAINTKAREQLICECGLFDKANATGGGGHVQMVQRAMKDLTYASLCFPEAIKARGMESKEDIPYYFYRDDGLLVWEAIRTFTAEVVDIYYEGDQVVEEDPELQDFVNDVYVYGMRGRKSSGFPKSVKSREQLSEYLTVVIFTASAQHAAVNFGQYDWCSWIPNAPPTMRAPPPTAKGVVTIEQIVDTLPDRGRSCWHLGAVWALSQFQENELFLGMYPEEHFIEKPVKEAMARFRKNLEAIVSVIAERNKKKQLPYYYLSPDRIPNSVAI
Test: 5-LO product formation in activated PMNL
Format: cell-based
Design: Freshly isolated PMNL (1 × 10^7); endogenous in cells; host or cells: human PMNL freshly isolated from leukocyte concentrates
Description: Human PMNL, monocytes, PBMC, and platelets were freshly isolated from leukocyte concentrates. The protocols for experiments with human blood and blood cells were approved by the ethical commission of the Friedrich-Schiller-University Jena. […] PMNL were recovered from the pellet after hypotonic lysis of erythrocytes. Platelets were obtained from the supernatant and washed with PBS pH 5.9/0.9% NaCl (1:1). […]

With Cc1c(C)c2c(c(C)c1O)CC[C@@](C)(CCCC(C)CCCC(C)CCCC(C)C(=O)O)O2 (stereo partly drawn) [4a, 13-((2R)-6-hydroxy-2,5,7,8-tetramethylchroman-2-yl)-2,6,10-trimethyltridecanoic acid] the IC50 was 80 nM.
